Starred links: 1 amine or outer side, 2 acyl side, 3 side chain; linkers in the order of their positions; H or OH if unused. Positions of bridges follow the written chain, without caps; N, C: chain ends. Non-standard residues stand in square brackets, D forms with d. Residues, ends and D or L forms follow the SMILES beside them. Groups on a side chain read outwards from the residue. *: point of attachment. Phe(4-(1-Me-pyrazol-4-yl)) = Cn1cc(-c2ccc(C[C@H](N)C(=O)O)cc2)cn1; NMeAla(isoquinolin-7-yl) = CN[C@@H](Cc1ccc2ccncc2c1)C(=O)O; PEG12 = NCCOCCOCCOCCOCCOCCOCCOCCOCCOCCOCCOCCOCCC(=O)O; Phe(4-CH2COOH) = N[C@@H](Cc1ccc(CC(=O)O)cc1)C(=O)O; X2 = CN([C@@H](CC1CCN(CC(=O)O)CC1)C(=O)[*:2])[*:1]; 3Pal(6-Ph) = N[C@@H](Cc1ccc(-c2ccccc2)nc1)C(=O)O; Biotin = O=C1N[C@H]2[C@H](CS[C@H]2CCCCC(=O)*)N1; Phe(4-COOH) = N[C@@H](Cc1ccc(C(=O)O)cc1)C(=O)O; NMe2Nal = CN[C@@H](Cc1ccc2ccccc2c1)C(=O)O; NMeI = CC[C@H](C)[C@H](NC)C(=O)O; NMeQ = CN[C@@H](CCC(N)=O)C(=O)O; NMeK = CN[C@@H](CCCCN)C(=O)O; NMeC = CN[C@@H](CS)C(=O)O; Carboxymethyl = O=C(O)C*
What follows are compounds tested against Human Glypican3-Fc (Homo sapiens, UniProt P51654) (assay: SPR binding to Glypican-3, Method B-3 (Glypican3-Fc captured on Protein A chip, 5-point dilution series)). Conditions: SPR method B-3.
Method: A Protein A sensor chip (Cytiva) was inserted into a Biacore T200 (Cytiva), priming was performed three times with a running buffer: HBS-P+, pH 7.4 (Cytiva), and equilibration was carried out at a flow rate of 30 μL/min. Glypican3-Fc was allowed to react for 60 seconds at a flow rate of 10 μL/min. After capturing human Glypican3-Fe, a peptide solution prepared to 10 mM in DMSO solution was diluted with a running buffer to a final concentration of 10 μM. After that, 5 serial dilution series (100 nM, 50 nM, 25 nM, 10 nM, 5 nM) of peptide solutions were prepared. Using the above samples, peptide kinetics for Glypican3 was obtained by SPR measurement. Kinetics evaluation of Glypican3 was performed by SPR measurements at a flow rate of 10 LL/min, setting the association time to 120 seconds and the disassociation time to 600 seconds.
The obtained data by Method B-1, Method B-2, Method B-3 and Method B-4 were analyzed by follow. Single Cycle Kinetics was used as the kinetics evaluation model, and curve fitting was performed using Biacore T200 Evaluation Software Version 3.0 (Cytiva).

SMILES | Kd [nM]
CC[C@H](C)[C@@H]1NC(=O)[C@H]([C@@H](C)OC)NC(=O)[C@H](Cc2ccc(C(=O)O)cc2)NC(=O)[C@H](CC2CCN(CC(=O)O)CC2)N(C)C(=O)[C@H](CC(=O)O)NC(=O)[C@H](CCC(N)=O)N(C)C(=O)[C@H](CCCCN)N(C)C(=O)CSC[C@@H](C(N)=O)N(C)C(=O)[C@H](Cc2ccc(-c3cnn(C)c3)cc2)NC(=O)CNC(=O)[C@H](Cc2ccc3ccccc3c2)N(C)C(=O)[C@H](Cc2ccc(CC(=O)O)cc2)NC1=O [Conjugate 2-51] ({CH2CO}-[NMeK][NMeQ]D[X2][Phe(4-COOH)]T(Me)I[Phe(4-CH2COOH)][NMe2Nal]G[Phe(4-(1-Me-pyrazol-4-yl))][NMeC]-NH2; thioether N-12) | 2.5
CC[C@H](C)[C@@H]1NC(=O)[C@H]([C@@H](C)OC)NC(=O)[C@H](Cc2ccc(C(=O)O)cc2)NC(=O)[C@H](CCC(N)=O)N(C)C(=O)[C@H](CC(=O)O)NC(=O)[C@H]([C@@H](C)CC)N(C)C(=O)[C@H](CCCCN)N(C)C(=O)CSC[C@@H](C(N)=O)N(C)C(=O)[C@H](Cc2ccc(-c3ccccc3)nc2)NC(=O)CNC(=O)[C@H](Cc2ccc3ccncc3c2)N(C)C(=O)[C@H](Cc2ccc(OCC(=O)O)cc2)NC1=O [Conjugate 2-26] ({CH2CO}-[NMeK][NMeI]D[NMeQ][Phe(4-COOH)]T(Me)IY(Carboxymethyl)[NMeAla(isoquinolin-7-yl)]G[3Pal(6-Ph)][NMeC]-NH2; thioether N-12) | 0.3
CC[C@H](C)[C@@H]1NC(=O)[C@H]([C@@H](C)OC)NC(=O)[C@H](Cc2ccc(C(=O)O)cc2)NC(=O)[C@H](CCCCNC(=O)N2CCN(CC(=O)O)CC2)N(C)C(=O)[C@H](CC(=O)O)NC(=O)[C@H](CCCCNC(=O)N2CCN(CC(=O)O)CC2)N(C)C(=O)[C@H](CCCCN)N(C)C(=O)CSC[C@@H](C(N)=O)N(C)C(=O)[C@H](Cc2ccc(-c3ccccc3)nc2)NC(=O)CNC(=O)[C@H](Cc2ccc3ccncc3c2)N(C)C(=O)[C@H](Cc2ccc(OCC(=O)N3CCN(CC(=O)O)CC3)cc2)NC1=O [Conjugate 2-32] | 1.8
CC[C@H](C)[C@@H]1NC(=O)[C@H](Cc2ccc(C(=O)O)cc2)NC(=O)[C@H](CCCCN)N(C)C(=O)[C@H](CC(=O)O)NC(=O)[C@H](CCC(N)=O)N(C)C(=O)[C@H](CCC(N)=O)N(C)C(=O)CSC[C@@H](C(N)=O)N(C)C(=O)[C@H](Cc2ccc(-c3cnn(C)c3)cc2)NC(=O)CNC(=O)[C@H](Cc2ccc3ccccc3c2)N(C)C(=O)[C@H](Cc2ccc(CC(=O)O)cc2)NC(=O)[C@H]([C@@H](C)CC)NC1=O [Conjugate 2-52] ({CH2CO}-[NMeQ][NMeQ]D[NMeK][Phe(4-COOH)]II[Phe(4-CH2COOH)][NMe2Nal]G[Phe(4-(1-Me-pyrazol-4-yl))][NMeC]-NH2; thioether N-12) | 1.6
CC[C@H](C)[C@@H]1NC(=O)[C@H](Cc2ccc(C(=O)O)cc2)NC(=O)[C@H](CCC(N)=O)N(C)C(=O)[C@H](CC(=O)O)NC(=O)[C@H]([C@@H](C)CC)N(C)C(=O)[C@H](CCCCNC(=O)CCOCCOCCOCCOCCOCCOCCOCCOCCOCCOCCOCCOCCNC(=O)CCCC[C@@H]2SC[C@@H]3NC(=O)N[C@@H]32)N(C)C(=O)CSC[C@@H](C(N)=O)N(C)C(=O)[C@H](Cc2ccc(-c3ccccc3)nc2)NC(=O)CNC(=O)[C@H](Cc2ccc3ccncc3c2)N(C)C(=O)[C@H](Cc2ccc(OCC(=O)O)cc2)NC(=O)[C@H]([C@@H](C)CC)NC1=O [PLB-64] ({CH2CO}-[NMeK]([PEG12-Biotin])[NMeI]D[NMeQ][Phe(4-COOH)]IIY(Carboxymethyl)[NMeAla(isoquinolin-7-yl)]G[3Pal(6-Ph)][NMeC]-NH2; thioether N-12) | 1.04

Reference: US20260241049A1, “Radiopharmaceutical Compositions Targeting Glypican-3 and Uses Thereof” (RayzeBio, Inc., priority 2023, published 2026)
